The source made the active and inactive calls. No cut-off for these calls is given here.
molecular target: T1, Renin (Homo sapiens) (UniProt P00797); assay: Inhibition of human recombinant renin at 50 uM by FRET
T1 sequence (whole entry): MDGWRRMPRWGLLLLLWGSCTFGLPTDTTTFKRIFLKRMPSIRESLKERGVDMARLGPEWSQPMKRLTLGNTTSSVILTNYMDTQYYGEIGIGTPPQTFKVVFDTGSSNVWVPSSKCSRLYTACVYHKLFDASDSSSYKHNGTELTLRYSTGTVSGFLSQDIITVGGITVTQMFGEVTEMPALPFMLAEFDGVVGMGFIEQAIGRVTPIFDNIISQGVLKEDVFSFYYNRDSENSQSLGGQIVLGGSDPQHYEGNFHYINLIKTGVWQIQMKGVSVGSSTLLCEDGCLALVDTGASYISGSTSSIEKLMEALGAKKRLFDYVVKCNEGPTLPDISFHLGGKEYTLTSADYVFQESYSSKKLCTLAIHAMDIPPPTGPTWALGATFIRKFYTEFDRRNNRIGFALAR

Row | Structure (SMILES) | inhibition [%]
1 | NC1=NC(c2cccc(-c3cccnc3F)c2)(c2ccc3c(c2)OCO3)C2=NCCCN12 (stereo unspecified) | 24
2 | NC1=NC(c2ccccc2)(c2cccc(Cc3ccc(F)cc3)c2)C2=NCCCN12 (stereo unspecified) | 15
3 | NC1=N[C@](c2ccc(OC(F)(F)F)cc2)(c2cccc(-c3cncnc3)c2)C2=NCCCN12 | 36
4 | CCOc1ccc(C2(c3cccc(-c4cccnc4F)c3)N=C(N)N3CCCN=C32)cc1OCC (stereo unspecified) | 14

tested on: Mus musculus; assay: Reduction in Abeta-40 level in Tg2576 mouse plasma at 30 mg/kg, po administered as single dose after 6 hrs; assay type: functional; design: scale not given: the % may be the effect or the level left

Row | Structure (SMILES) | Activity [%]
5 | NC1=N[C@](c2ccc(OC(F)(F)F)cc2)(c2cccc(-c3cccnc3F)c2)C2=NCCCN12 | 71

tested on: Mus musculus; assay: Reduction in Abeta-40 level in Tg2576 mouse brain at 30 mg/kg, po administered as single dose after 6 hrs; assay type: functional, organism-based; design: dose 30 mg/kg

Row | Structure (SMILES) | Activity
6 | NC1=N[C@](c2ccc(OC(F)(F)F)cc2)(c2cccc(-c3cccnc3F)c2)C2=NCCCN12 | inactive

molecular target: T2, Beta-secretase 2 (Homo sapiens) (UniProt Q9Y5Z0); assay: Inhibition of human BACE2 at 100 uM by FRET
T2 sequence (whole entry): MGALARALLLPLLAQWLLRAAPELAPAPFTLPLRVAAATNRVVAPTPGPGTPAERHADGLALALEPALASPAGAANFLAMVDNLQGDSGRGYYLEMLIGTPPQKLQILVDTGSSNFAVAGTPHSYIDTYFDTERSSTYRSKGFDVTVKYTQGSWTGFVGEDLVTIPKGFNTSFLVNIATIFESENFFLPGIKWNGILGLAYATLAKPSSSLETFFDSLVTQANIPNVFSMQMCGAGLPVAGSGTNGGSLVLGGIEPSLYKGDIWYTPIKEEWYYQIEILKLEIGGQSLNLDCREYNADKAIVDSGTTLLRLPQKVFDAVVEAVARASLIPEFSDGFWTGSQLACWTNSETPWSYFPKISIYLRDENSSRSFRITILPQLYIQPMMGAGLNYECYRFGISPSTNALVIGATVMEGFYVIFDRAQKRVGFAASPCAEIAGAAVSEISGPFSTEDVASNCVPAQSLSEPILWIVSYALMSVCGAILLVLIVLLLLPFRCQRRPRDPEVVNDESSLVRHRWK

Row | Structure (SMILES) | inhibition [%]
7 | CC(C)(C)c1cccc(C2(c3ccccc3)N=C(N)N3CCCN=C32)c1 (stereo unspecified) | 21

molecular target: T3, Beta-secretase 1 (Homo sapiens, UniProt P56817); assay: Inhibition of human BACE1 by FRET
T3 sequence (P56817 whole entry): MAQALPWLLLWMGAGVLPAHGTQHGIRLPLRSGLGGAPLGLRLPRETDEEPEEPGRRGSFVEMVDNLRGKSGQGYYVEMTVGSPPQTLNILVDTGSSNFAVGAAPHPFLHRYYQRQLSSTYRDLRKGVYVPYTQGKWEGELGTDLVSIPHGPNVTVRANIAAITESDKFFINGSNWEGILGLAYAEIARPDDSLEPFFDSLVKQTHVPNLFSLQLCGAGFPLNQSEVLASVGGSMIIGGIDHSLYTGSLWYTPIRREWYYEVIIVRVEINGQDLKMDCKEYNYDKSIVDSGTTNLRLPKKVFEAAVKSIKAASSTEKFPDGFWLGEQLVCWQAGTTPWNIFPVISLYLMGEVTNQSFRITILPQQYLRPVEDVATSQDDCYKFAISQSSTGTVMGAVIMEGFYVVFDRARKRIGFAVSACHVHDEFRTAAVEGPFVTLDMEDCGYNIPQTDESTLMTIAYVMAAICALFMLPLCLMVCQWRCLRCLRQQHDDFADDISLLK

Row | Structure (SMILES) | IC50 [nM]
8 | NC1=NC(c2ccccc2)(c2cccc(C(F)(F)F)c2)C2=NCCCN12 (stereo unspecified) | 21900
9 | CC1(C)CN2C(N)=NC(c3ccc(OC(F)(F)F)cc3)(c3cccc(-c4cccnc4F)c3)C2=N1 (stereo unspecified) | 190
10 | COc1cccc(C2(c3ccccc3)N=C(N)N3CCCN=C32)c1 (stereo unspecified) | 20300
11 | NC1=NC(c2ccc(OC(F)(F)F)cc2)(c2cccc(-c3cccnc3F)c2)C2=NCCCCN12 (stereo unspecified) | 80
12 | NC1=NC(c2ccc(OC(F)(F)F)cc2)(c2cccc(Br)c2)C2=NCCCN12 (stereo unspecified) | 2600
13 | CC(C)(C)c1cccc(C2(c3ccccc3)N=C(N)N3CCCN=C32)c1 (stereo unspecified) | 30200
14 | CCOc1ccc(C2(c3cccc(-c4cccnc4F)c3)N=C(N)N3CCCN=C32)cc1OCC (stereo unspecified) | 80
15 | COc1ccc(C2(c3cccc(-c4cccnc4F)c3)N=C(N)N3CCCN=C32)cc1 (stereo unspecified) | 70

molecular target: T4, Cathepsin D (Homo sapiens, UniProt P07339); assay: Inhibition of human cathepsin D by FRET
T4 sequence (P07339 65-162 limits assumed): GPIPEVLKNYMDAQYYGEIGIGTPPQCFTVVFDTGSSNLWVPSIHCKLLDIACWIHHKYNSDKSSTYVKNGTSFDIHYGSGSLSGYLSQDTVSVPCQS
T4 sequence (P07339 169-412 limits assumed): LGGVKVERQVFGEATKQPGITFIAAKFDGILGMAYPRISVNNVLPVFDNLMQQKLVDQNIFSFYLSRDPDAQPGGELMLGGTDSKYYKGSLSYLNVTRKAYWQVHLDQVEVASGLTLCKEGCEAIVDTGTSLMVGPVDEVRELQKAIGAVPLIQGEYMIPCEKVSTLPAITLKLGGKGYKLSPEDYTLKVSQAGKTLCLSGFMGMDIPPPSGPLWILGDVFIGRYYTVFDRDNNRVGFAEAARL

Row | Structure (SMILES) | IC50 [µM]
16 | NC1=NC(c2ccc(OC(F)(F)F)cc2)(c2cccc(-c3cncnc3)c2)C2=NCCCN12 (stereo unspecified) | 78.7
17 | NC1=NC(c2ccc(OC(F)(F)F)cc2)(c2cccc(-c3cccnc3F)c2)C2=NOCCN12 (stereo unspecified) | 2.4
18 | COc1ccc(C2(c3cccc(-c4cncnc4)c3)N=C(N)N3CCCN=C32)cc1 (stereo unspecified) | 69.5
19 | NC1=N[C@@](c2ccc(OC(F)(F)F)cc2)(c2cccc(-c3cccnc3F)c2)C2=NCCCN12 | 56.9
20 | CC1(C)CN2C(N)=NC(c3ccc(OC(F)(F)F)cc3)(c3cccc(-c4cccnc4F)c3)C2=N1 (stereo unspecified) | 33
21 | NC1=NC(c2cccc(-c3cccnc3F)c2)(c2ccc3c(c2)OCO3)C2=NCCCN12 (stereo unspecified) | 15.4
22 | NC1=NC(c2ccccc2)(c2cccc(Cc3ccc(F)cc3)c2)C2=NCCCN12 (stereo unspecified) | 9.2
23 | NC1=NC(c2ccc(OC(F)(F)F)cc2)(c2cccc(-c3cccnc3F)c2)C2=NCCCCN12 (stereo unspecified) | 10.8
24 | NC1=N[C@](c2ccc(OC(F)(F)F)cc2)(c2cccc(-c3cncnc3)c2)C2=NCCCN12 | 36.2
25 | NC1=NC(c2ccc(OC(F)(F)F)cc2)(c2cccc(-c3cccnc3F)c2)C2=NCCN12 (stereo unspecified) | 10.7
26 | NC1=NC(c2ccc(OC(F)(F)F)cc2)(c2cccc(-c3cccnc3F)c2)C2=NCCCN12 (racemic) | 18.1
27 | COc1ccc(Cc2cccc(C3(c4ccccc4)N=C(N)N4CCCN=C43)c2)cc1 (stereo unspecified) | 24.9
28 | NC1=NC(c2ccc(OC(F)(F)F)cc2)(c2cccc(CCC3CC3)c2)C2=NCCCN12 (stereo unspecified) | 16.4
29 | NC1=NC(c2cccc(-c3cccnc3F)c2)(c2ccc3c(c2)OC(F)(F)O3)C2=NCCCN12 (stereo unspecified) | 95.3
30 | NC1=N[C@](c2ccc(OC(F)(F)F)cc2)(c2cccc(-c3cccnc3F)c2)C2=NCCCN12 | 6.9
31 | NC1=NC(c2ccc(OC(F)(F)F)cc2)(c2cccc(Br)c2)C2=NCCCN12 (stereo unspecified) | 47.4
32 | CC(C)(C)c1cccc(C2(c3ccccc3)N=C(N)N3CCCN=C32)c1 (stereo unspecified) | 150
33 | NC1=NC(c2ccc(OC(F)(F)F)cc2)(c2cccc(-c3cccnc3F)c2)/C2=N/CCCCCN12 (stereo unspecified) | 11.3
34 | CCOc1ccc(C2(c3cccc(-c4cccnc4F)c3)N=C(N)N3CCCN=C32)cc1OCC (stereo unspecified) | 63.4
35 | NC1=NC(c2cccc(-c3cccnc3F)c2)(c2ccc3c(c2)OCCO3)C2=NCCCN12 (stereo unspecified) | 9.6
36 | COc1ccc(C2(c3cccc(-c4cccnc4F)c3)N=C(N)N3CCCN=C32)cc1 (stereo unspecified) | 16.5
37 | NC1=NC(c2ccccc2)(c2cccc(Cc3ccccc3)c2)C2=NCCCN12 (stereo unspecified) | 52.5
38 | CCCc1cccc(C2(c3ccc(OC(F)(F)F)cc3)N=C(N)N3CCCN=C32)c1 (stereo unspecified) | 93.7

molecular target: T3, Beta-secretase 1; assay: Inhibition of BACE1 expressed in CHO cells co-expressing human wild type APP protein by ELISA; assay type: cell-based

Row | Structure (SMILES) | EC50 [nM]
39 | NC1=NC(c2ccc(OC(F)(F)F)cc2)(c2cccc(-c3cccnc3F)c2)C2=NOCCN12 (stereo unspecified) | 200
40 | NC1=NC(c2ccccc2)(c2cccc(C(F)(F)F)c2)C2=NCCCN12 (stereo unspecified) | 5100
41 | CC1(C)CN2C(N)=NC(c3ccc(OC(F)(F)F)cc3)(c3cccc(-c4cccnc4F)c3)C2=N1 (stereo unspecified) | 1500
42 | COc1cccc(C2(c3ccccc3)N=C(N)N3CCCN=C32)c1 (stereo unspecified) | 20900
43 | NC1=NC(c2ccccc2)(c2cccc(Cc3ccc(F)cc3)c2)C2=NCCCN12 (stereo unspecified) | 4600
44 | NC1=NC(c2ccc(OC(F)(F)F)cc2)(c2cccc(-c3cccnc3F)c2)C2=NCCCCN12 (stereo unspecified) | 300
45 | COc1ccc(Cc2cccc(C3(c4ccccc4)N=C(N)N4CCCN=C43)c2)cc1 (stereo unspecified) | 5100
46 | NC1=NC(c2ccc(OC(F)(F)F)cc2)(c2cccc(CCC3CC3)c2)C2=NCCCN12 (stereo unspecified) | 950
47 | NC1=NC(c2ccc(OC(F)(F)F)cc2)(c2cccc(Br)c2)C2=NCCCN12 (stereo unspecified) | 1600
48 | CC(C)(C)c1cccc(C2(c3ccccc3)N=C(N)N3CCCN=C32)c1 (stereo unspecified) | 3000
49 | COc1ccc(C2(c3cccc(-c4cccnc4F)c3)N=C(N)N3CCCN=C32)cc1 (stereo unspecified) | 1630
50 | NC1=NC(c2ccccc2)(c2cccc(Cc3ccccc3)c2)C2=NCCCN12 (stereo unspecified) | 5100
51 | CCCc1cccc(C2(c3ccc(OC(F)(F)F)cc3)N=C(N)N3CCCN=C32)c1 (stereo unspecified) | 2100

tested on: not listed separately; assay: Inhibition of pepsin at 100 uM by FRET

Row | Structure (SMILES) | inhibition [%]
52 | NC1=NC(c2ccc(OC(F)(F)F)cc2)(c2cccc(-c3cccnc3F)c2)C2=NOCCN12 (stereo unspecified) | 12
53 | NC1=NC(c2cccc(-c3cccnc3F)c2)(c2ccc3c(c2)OCO3)C2=NCCCN12 (stereo unspecified) | 18
54 | NC1=NC(c2ccccc2)(c2cccc(Cc3ccc(F)cc3)c2)C2=NCCCN12 (stereo unspecified) | 6
55 | NC1=N[C@](c2ccc(OC(F)(F)F)cc2)(c2cccc(-c3cncnc3)c2)C2=NCCCN12 | 12
56 | NC1=N[C@](c2ccc(OC(F)(F)F)cc2)(c2cccc(-c3cccnc3F)c2)C2=NCCCN12 | 13
57 | CCOc1ccc(C2(c3cccc(-c4cccnc4F)c3)N=C(N)N3CCCN=C32)cc1OCC (stereo unspecified) | 11

molecular target: T5, Renin (Homo sapiens, UniProt P00797); assay: Inhibition of human recombinant renin by FRET
T5 sequence (P00797 whole entry): T1 sequence (whole entry)

Row | Structure (SMILES) | IC50 [µM]
58 | NC1=NC(c2ccc(OC(F)(F)F)cc2)(c2cccc(-c3cccnc3F)c2)C2=NOCCN12 (stereo unspecified) | 2.04
59 | NC1=N[C@](c2ccc(OC(F)(F)F)cc2)(c2cccc(-c3cccnc3F)c2)C2=NCCCN12 | 20.8

molecular target: T2, Beta-secretase 2 (Homo sapiens); assay: Inhibition of human BACE2 at […] by FRET

Row | Structure (SMILES) | inhibition [%]
60 | NC1=NC(c2ccc(OC(F)(F)F)cc2)(c2cccc(Br)c2)C2=NCCCN12 (stereo unspecified) | 39

molecular target: T4, Cathepsin D; assay: Inhibition of human cathepsin D at 200 uM by FRET

Row | Structure (SMILES) | inhibition [%]
61 | NC1=NC(c2ccccc2)(c2ccccc2)C2=NCCCN12 | 16

molecular target: T4, Cathepsin D; assay: Inhibition of human cathepsin D at 100 uM by FRET

Row | Structure (SMILES) | inhibition [%]
62 | NC1=NC(c2ccccc2)(c2cccc(C(F)(F)F)c2)C2=NCCCN12 (stereo unspecified) | 28
63 | COc1cccc(C2(c3ccccc3)N=C(N)N3CCCN=C32)c1 (stereo unspecified) | 22
64 | NC1=N[C@@](c2ccc(OC(F)(F)F)cc2)(c2cccc(-c3cncnc3)c2)C2=NCCCN12 | 29

molecular target: T6, Beta-secretase 2 (Homo sapiens, UniProt Q9Y5Z0)
T6 sequence (Q9Y5Z0 whole entry): T2 sequence (whole entry)

Row | Structure (SMILES) | IC50 [µM]
65 | NC1=NC(c2ccc(OC(F)(F)F)cc2)(c2cccc(-c3cncnc3)c2)C2=NCCCN12 (stereo unspecified) | 16.7
66 | NC1=NC(c2ccccc2)(c2cccc(C(F)(F)F)c2)C2=NCCCN12 (stereo unspecified) | 30.1
67 | COc1ccc(C2(c3cccc(-c4cncnc4)c3)N=C(N)N3CCCN=C32)cc1 (stereo unspecified) | 16.2
68 | CC1(C)CN2C(N)=NC(c3ccc(OC(F)(F)F)cc3)(c3cccc(-c4cccnc4F)c3)C2=N1 (stereo unspecified) | 17.3
69 | COc1cccc(C2(c3ccccc3)N=C(N)N3CCCN=C32)c1 (stereo unspecified) | 24.4
70 | NC1=NC(c2ccccc2)(c2cccc(Cc3ccc(F)cc3)c2)C2=NCCCN12 (stereo unspecified) | 7
71 | NC1=N[C@](c2ccc(OC(F)(F)F)cc2)(c2cccc(-c3cncnc3)c2)C2=NCCCN12 | 10.7
72 | COc1ccc(Cc2cccc(C3(c4ccccc4)N=C(N)N4CCCN=C43)c2)cc1 (stereo unspecified) | 22.4
73 | NC1=NC(c2ccc(OC(F)(F)F)cc2)(c2cccc(CCC3CC3)c2)C2=NCCCN12 (stereo unspecified) | 3.78
74 | NC1=N[C@](c2ccc(OC(F)(F)F)cc2)(c2cccc(-c3cccnc3F)c2)C2=NCCCN12 | 3.6
75 | NC1=NC(c2ccc(OC(F)(F)F)cc2)(c2cccc(-c3cccnc3F)c2)/C2=N/CCCCCN12 (stereo unspecified) | 10.8
76 | NC1=NC(c2ccccc2)(c2cccc(Cc3ccccc3)c2)C2=NCCCN12 (stereo unspecified) | 10.9
